Measurements: publication PMC6886403, “Structure-Based and Molecular Modeling Studies for the Discovery of Cyclic Imides as Reversible Cruzain Inhibitors With Potent Anti-Trypanosoma cruzi Activity” (Frontiers in Chemistry, 2019)

Tests used:
cruzain = molecular target: T1, cruzain (Trypanosoma cruzi, UniProt P25779); test: Cruzain inhibition assay (cleavage of fluorogenic substrate Z-Phe-Arg-AMC); format: biochemical; conditions: for inhibition at 100 µM: at 100 μM inhibitor, mean of three measurements, read-out: Percent inhibition against cruzain; for IC50: mean ± SD of three individual experiments, at least six inhibitor concentrations in triplicate, 1.5 nM cruzain, 5.0 μM Z-Phe-Arg-AMC, pH 5.5; for decrease in potency against cruzain relative to 3a: less active than 3a; for mechanism of inhibition: Lineweaver-Burk plots, eight substrate and four inhibitor concentrations
T1 construct: inferred from Ni-NTA purification of the pro-enzyme; made in house; host or cells: Escherichia coli (M15)
Experimental: The catalytic activity of cruzain was monitored by cleavage of the fluorogenic substrate Z-Phe-Arg-aminomethyl coumarin (Z-Phe-Arg-AMC) as previously described (Ferreira et al., [2014]). The enzyme kinetics assays were performed in 0.1 M sodium acetate buffer (pH 5.5) with 5 mM dithiothreitol (DTT) and 0.01% Triton X-100. […] The enzyme reaction was monitored for 5 min at 30°C in 96-well black flat bottom plates, and the activity was calculated based on the initial rates compared with a control (DMSO). Wavelengths of 355 nm for excitation and 460 nm for emission were used. IC50 values were independently determined by determining rate measurements for at least six inhibitor concentrations, each evaluated in triplicate. To determine the mechanism of inhibition, eight substrate concentrations and four inhibitor concentrations were used, each in triplicate. The mechanism of inhibition was determined by Lineweaver-Burk plots. SigmaPlot 10.0 (Systat Software Inc., Erkrath, Germany) was used to determine the IC50 values.

[1] = system: T. cruzi intracellular amastigotes; test: T. cruzi intracellular amastigote assay (Tulahuen lacZ strain, CPRG readout); format: cell-based, Trypanosoma cruzi; conditions: intracellular amastigotes; for IC50: Trypanosoma cruzi, Tulahuen strain in HFF-1 fibroblasts, 120 h, mean ± SD of two experiments, read-out: IC50 T. cruzi
Experimental: In vitro assays against T. cruzi were performed as described previously (Ferreira et al., [2014]). The T. cruzi Tulahuen strain, which expresses the E. coli β-galactosidase gene lacZ (Buckner et al., [1996]), was provided by Frederick S. Buckner (University of Washington, Seattle, WA). Stock solutions of the synthesized compounds were prepared in 100% DMSO. Epimastigotes were grown in liver infusion tryptone (LIT) supplemented with 10% fetal calf serum (FCS), penicillin and streptomycin (28°C). Metacyclogenesis from epimastigotes to trypomastigotes was induced by incubation of the epimastigotes in Grace's insect medium (Sigma-Aldrich, St. Louis, MO) supplemented with 10% FCS (28°C). HFF-1 human fibroblasts were seeded at 2 × 10^3/well (80 μL) in 96-well tissue culture plates in RPMI 1640 without phenol red supplemented with 10% FCS and incubated overnight (37°C, 5% CO2). Next, trypomastigotes were added at 1.0 × 10^4/well (20 μL), and the plates were incubated (37°C, 5% CO2). After 24 h, 3-fold serial dilutions (50 μL) of the synthesized compounds were added at concentrations ranging from 0.1 to 100 μM, and the plates were incubated (37°C, 5% CO2). Each compound concentration was evaluated in triplicate. All plates included BZ (Sigma-Aldrich) as a positive control and untreated wells (100% growth) as a negative control. After 120 h, 50 μL of chlorophenol red β-D-galactopyranoside (CPRG, Sigma-Aldrich) and IGEPAL CA-630 (Sigma-Aldrich) (0.1%) was added to each well. The absorbance was measured at 570 nm in an automated microplate reader, and the data were transferred to SigmaPlot 10.0 (Systat Software Inc.) for IC50 value calculation.

[2] = Cytotoxicity in HepG2 cells (MTS tetrazolium assay); format: cell-based; conditions: human, HepG2 hepatocytes, mean ± SD of two independent assays
Experimental: (§1) The cytotoxicities of the compounds against HFF-1 fibroblasts and HepG2 hepatocytes were evaluated using the MTS tetrazolium assay (Promega, Madison, WI) (Barltrop et al., [1991]). HFF-1 fibroblasts were seeded at 2 × 10^3/well in 96-well culture plates in RPMI 1640 without phenol red supplemented with 10% FCS and incubated overnight (37°C, 5% CO2). HepG2 hepatocytes were seeded at 6 × 10^3/well in 96-well culture plates in DMEM (Cultilab, Campinas SP) supplemented with 10% FCS and incubated overnight (37°C, 5% CO2). The compounds were added in 3-fold serial dilutions, and the plates were incubated at 37°C with 5% CO2. Each compound concentration was evaluated in triplicate. All plates included doxorubicin (Sigma-Aldrich, St. Louis, MO) as a positive control and untreated wells (100% growth) as a negative control. After 72 h, 20 μL of MTS was added, and the plates were incubated for 4 h. The absorbance was measured at 490 nm in an automated microplate reader, and the data were transferred to SigmaPlot 10.0 (Systat Software Inc., Erkrath, Germany) for IC50 value calculation. The percent of nonviable cells was determined and compared to the negative control wells (100% growth).

[3] = Cytotoxicity in HFF-1 cells (MTS tetrazolium assay); format: cell-based; conditions: human, HFF-1 fibroblasts, mean ± SD of two independent assays
Experimental: as §1

T1 sequence (P25779 123-337 limits assumed): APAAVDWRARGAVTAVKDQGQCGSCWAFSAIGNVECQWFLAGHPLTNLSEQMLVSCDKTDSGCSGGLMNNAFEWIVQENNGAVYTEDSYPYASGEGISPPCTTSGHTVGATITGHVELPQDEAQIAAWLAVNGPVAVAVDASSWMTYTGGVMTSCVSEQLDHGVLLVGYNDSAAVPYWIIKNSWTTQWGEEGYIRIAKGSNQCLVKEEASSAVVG

SMILES | inhibition at 100 µM (cruzain) [%] | IC50 (cruzain) [µM] | IC50 [1] [µM] | further results
COc1ccc(NC(=O)COC(=O)[C@H](CC(C)C)N2C(=O)C3CC=CCC3C2=O)cc1Cl (stereo partly drawn) [3a, 2-((3-chloro-4-methoxyphenyl)amino)-2-oxoethyl (2S)-2-(1,3-dioxo-1,3,3a,4,7,7a-hexahydro-2H-isoindol-2-yl)-4-methylpentanoate] | 88 | 2.2 ± 0.4 | > 100 | activity against T. cruzi (in words) [1]: not active
COc1ccc(NC(=O)COC(=O)[C@H](CC(C)C)N2C(=O)C3CC=CCC3C2=O)cc1 (stereo partly drawn) [3b, 2-((4-methoxyphenyl)amino)-2-oxoethyl (2S)-2-(1,3-dioxo-1,3,3a,4,7,7a-hexahydro-2H-isoindol-2-yl)-4-methylpentanoate] | 86 | 13.9 |  | 
CC(C)C[C@@H](C(=O)OCC(=O)Nc1cccc(Cl)c1)N1C(=O)C2CC=CCC2C1=O (stereo partly drawn) [3c, 2-((3-chlorophenyl)amino)-2-oxoethyl (2S)-2-(1,3-dioxo-1,3,3a,4,7,7a-hexahydro-2H-isoindol-2-yl)-4-methylpentanoate] | 67 | 40.1 |  | 
CC(C)C[C@@H](C(=O)OCC(=O)Nc1ccccc1)N1C(=O)C2CC=CCC2C1=O (stereo partly drawn) [3d, 2-oxo-2-(phenylamino)ethyl (2S)-2-(1,3-dioxo-1,3,3a,4,7,7a-hexahydro-2H-isoindol-2-yl)-4-methylpentanoate] | 76 | 16.7 ± 1.3 | > 100 | decrease in potency against cruzain relative to 3a (cruzain): 8 fold
CC(C)C[C@@H](C(=O)OCC(=O)Nc1ccc(F)cc1)N1C(=O)C2CC=CCC2C1=O (stereo partly drawn) [3e, 2-((4-fluorophenyl)amino)-2-oxoethyl (2S)-2-(1,3-dioxo-1,3,3a,4,7,7a-hexahydro-2H-isoindol-2-yl)-4-methylpentanoate] | 74 | 20.5 ± 1.3 | > 100 | 
CC(C)C[C@@H](C(=O)OCC(=O)Nc1ccc(Br)cc1)N1C(=O)C2CC=CCC2C1=O (stereo partly drawn) [3f, 2-((4-bromophenyl)amino)-2-oxoethyl (2S)-2-(1,3-dioxo-1,3,3a,4,7,7a-hexahydro-2H-isoindol-2-yl)-4-methylpentanoate] | 53 |  |  | 
CC(C)C[C@@H](C(=O)OCC(=O)Nc1ccc(Cl)cc1)N1C(=O)C2CC=CCC2C1=O (stereo partly drawn) [3g, 2-((4-chlorophenyl)amino)-2-oxoethyl (2S)-2-(1,3-dioxo-1,3,3a,4,7,7a-hexahydro-2H-isoindol-2-yl)-4-methylpentanoate] | 56 |  |  | 
CC(C)C[C@@H](C(=O)OCC(=O)Nc1ccc(O)cc1)N1C(=O)C2CC=CCC2C1=O (stereo partly drawn) [3h, 2-((4-hydroxyphenyl)amino)-2-oxoethyl (2S)-2-(1,3-dioxo-1,3,3a,4,7,7a-hexahydro-2H-isoindol-2-yl)-4-methylpentanoate] | 6 |  |  | 
CC(C)C[C@@H](C(=O)OCC(=O)Nc1ccc2ccccc2c1)N1C(=O)C2CC=CCC2C1=O (stereo partly drawn) [3i, 2-(naphthalen-2-ylamino)-2-oxoethyl (2S)-2-(1,3-dioxo-1,3,3a,4,7,7a-hexahydro-2H-isoindol-2-yl)-4-methylpentanoate] | 79 | 2.1 ± 1.3 | 32.8 ± 4.9 | CC50 at 72 h [2]: 45 ± 8 µM; CC50 at 72 h [3]: > 100 µM; mechanism of inhibition (cruzain): competitive
CC(C)C[C@@H](C(=O)OCC(=O)Nc1ccc(F)c([N+](=O)[O-])c1)N1C(=O)C2CC=CCC2C1=O (stereo partly drawn) [3j, 2-((4-fluoro-3-nitrophenyl)amino)-2-oxoethyl (2S)-2-(1,3-dioxo-1,3,3a,4,7,7a-hexahydro-2H-isoindol-2-yl)-4-methylpentanoate] | 56 |  |  | 
CC(C)CC(C(=O)OCC(=O)Nc1ccc([N+](=O)[O-])cc1)N1C(=O)C2CC=CCC2C1=O (centres unmarked) [3l] | 67 |  |  | 
COc1ccc(NC(=O)COC(=O)C(CC(C)C)N2C(=O)C3CC=CCC3C2=O)c([N+](=O)[O-])c1 (centres unmarked) [3m] | 53 |  |  | 
COc1ccc(NC(=O)COC(=O)[C@H](CC(C)C)N2C(=O)C3CCCCC3C2=O)cc1Cl (stereo partly drawn) [10b, 2-((3-chloro-4-methoxyphenyl)amino)-2-oxoethyl (2S)-2-(1,3-dioxooctahydro-2H-isoindol-2-yl)-4-methylpentanoate] | 75 | 4.2 ± 1.5 | > 100 | decrease in potency against cruzain relative to 3a (cruzain): 2 fold
COc1ccc(NC(=O)COC(=O)[C@H](Cc2ccccc2)N2C(=O)C3CC=CCC3C2=O)cc1Cl (stereo partly drawn) [10h, 2-((3-chloro-4-methoxyphenyl)amino)-2-oxoethyl (2S)-2-(1,3-dioxo-1,3,3a,4,7,7a-hexahydro-2H-isoindol-2-yl)-3-phenylpropanoate] | 96 | 1.4 ± 0.8 | > 100 | activity against cruzain (in words) (cruzain): active; mechanism of inhibition (cruzain): competitive; increase in potency against cruzain relative to 3a (cruzain; more active than 3a): 2 fold; activity against T. cruzi (in words) [1]: inactive
COc1ccc(NC(=O)COC(=O)C(Cc2ccccc2)N2C(=O)C3CC=CCC3C2=O)cc1Cl (centres unmarked) [10hrac, 2-((3-chloro-4-methoxyphenyl)amino)-2-oxoethyl 2-(1,3-dioxo-1,3,3a,4,7,7a-hexahydro-2H-isoindol-2-yl)-3-phenylpropanoate] |  | 1.16 |  | 
COc1ccc(NC(=O)COC(=O)[C@H](CC(C)C)N2CCCC2)cc1Cl [10k, 2-((3-chloro-4-methoxyphenyl)amino)-2-oxoethyl (S)-4-methyl-2-(pyrrolidin-1-yl)pentanoate] | 6 |  | > 100 | activity against cruzain (in words) (cruzain): inactive; activity against T. cruzi (in words) [1]: inactive
COc1cccc2c1C(=O)c1c(O)c3c(c(O)c1C2=O)C[C@@](O)(C(=O)CO)C[C@@H]3O[C@H]1C[C@H](N)[C@H](O)[C@H](C)O1 [Doxorubicin, doxorubicin, reference compound] |  |  |  | CC50 at 72 h [2]: 0.4 ± 0.1 µM; CC50 at 72 h [3]: 0.21 ± 0.09 µM
COc1ccc(NC(=O)CNC(=O)C(CC(C)C)N2C(=O)C3CC=CCC3C2=O)cc1Cl (centres unmarked) [compound 5, N-(2-((3-chloro-4-methoxyphenyl)amino)-2-oxoethyl)-2-(1,3-dioxo-1,3,3a,4,7,7a-hexahydro-2H-isoindol-2-yl)-4-methylpentanamide] | 38 |  |  | 

Second part, led by results:

inhibition at 100 µM (cruzain) [%] | SMILES | IC50 (cruzain) [µM] | IC50 [1] [µM] | further results
39 | COc1ccc(NC(=O)COC(=O)[C@H](CC(C)C)N2C(=O)c3ccccc3C2=O)cc1Cl [10a, 2-((3-chloro-4-methoxyphenyl)amino)-2-oxoethyl (S)-2-(1,3-dioxoisoindolin-2-yl)-4-methylpentanoate] |  |  | 
0 | COc1ccc(NC(=O)COC(=O)CN2C(=O)C3CC=CCC3C2=O)cc1Cl (centres unmarked) [10g, 2-((3-chloro-4-methoxyphenyl)amino)-2-oxoethyl 2-(1,3-dioxo-1,3,3a,4,7,7a-hexahydro-2H-isoindol-2-yl)acetate] |  |  | activity against cruzain (in words) (cruzain): inactive
58 | COc1ccc(NC(=O)COC(=O)[C@@H](Cc2ccc3ccccc3c2)N2C(=O)C3CC=CCC3C2=O)cc1Cl (stereo partly drawn) [10i, 2-((3-chloro-4-methoxyphenyl)amino)-2-oxoethyl (2R)-2-(1,3-dioxo-1,3,3a,4,7,7a-hexahydro-2H-isoindol-2-yl)-3-(naphthalen-2-yl)propanoate] |  |  | 
